Experimental data: patent US20150374394A1, “SONOLYSIS WITH BIODEGRADABLE NANOPARTICLES” (THE BOARD OF TRUSTEES OF THE UNIVERSITY OF ARKANSAS, priority 2012, published 2015)

Tested on: clots formed from pooled rabbit plasma with rabbit blood cells
Assay: In vitro sonothrombolysis (STBL) of clots with MBs, CPDL, tPA and/or 450 nm StNPs, pulsed 1 MHz ultrasound
Conditions: pulsed 1 MHz ultrasound 15 min, in bovine calf serum, 0.5 mL/min; control ultrasound alone; 3 μm MBs, 0.1 mg/ml tPA, 0.06% w/V CPDL nanoemulsion
Experimental: FIG. 1 depicts a graph showing the potentiation of sonothrombolysis (STBL) efficacy by microbubbles (MBs) and/or a nanoemulsion of cyclopentadecanolide with or without tissue plasminogen activator (tPA). […] STBL was performed with fibrin-rich clots (see Example 2) using pulsed, 1 MHz ultrasound for 15 min. The MBs, tPA, StNPs etc. were suspended in bovine calf serum and introduced at a flow rate of 0.5 mL/min. STBL efficacy is reported as % clot lysis. Abbreviations: US=ultrasound; MBs=microbubbles; CPDL=cyclopentadecanolide; StNPs=starch nanoparticles; tPA=tissue plasminogen activator.
The clots used in these experiments were formed by mixing pooled rabbit plasma with rabbit blood cells (final volume equal to 2 mL; the volume of whole rabbit blood from which the cells were obtained), incubating this mixture for 24 h at 37° C. and then curing the formed clots for 24 h at 5° C. […] The StNPs were diluted to have an Optical Density reading at 530 nm (OD530) of 1.0. […] STBL efficacy was measured as the percent of the initial clot mass that was lost from the clot during the 15 min treatment time.

O=C1CCCCCCCCCCCCCCO1 [CPDL, cyclopentadecanolide]
STBL efficacy (FIG. 1), in words: improved STBL efficacy markedly
